The target in one experiment is T1, PPARγ (Mus musculus, UniProt P37238).
T1 construct: made in house; host or cells: E. coli strain Y 1090 (GST-PPARγ); TNT Coupled Reticulocyte Lysate System, Promega (SRC-1)
As to the kind of experiment: Ligand-induced coactivator interaction assay (GST-PPARγ / SRC-1). In kind it is biochemical. The note with it: for PPARγ-ligand activity of the steroid per se: 10 and 100 μM solutions, no liver cytosol; for band in coactivator assay, steroid incubated with liver cytosol: liver cytosol alone gives weak bands, no PAPS. How it is done:
ApcDNA3-SRC-1 construct was used as template to prepare (^35S-methionine)-SRC-1 by in vitro transcription and translation using the TNT® Coupled Reticulocyte Lysate System (Promega).
Ligand-induced interactions between GST-PPARγ and SRC-1: To generate GST-PPARγ fusion protein, mouse PPARγcDNA was inserted into the NcoI-HindIII sites of pGEX-KG, and protein was then expressed in E. coli, strain Y 1090. The bacteria were lysed by sonication in TEDG buffer (50 mM Tris (pH 7.4), 1.5 mM EDTA, 10% glycerol, 0.4 M NaCl, 0.1 mM DTT) containing the following protease inhibitors: 0.5 mM PMSF, 1 mM benzamidine, 10 μg/ml leupeptin, 10 μg/ml antipain and […] aprotinin. The lysates were centrifuged at 100,000×g for 60 min in a SW 41 rotor using a Beckman L8-70 M ultracentrifuge. The fusion protein was immobilized on GSH Sepharose beads (Pharmacia) and then incubated with potential ligands in (FIG. 5) 10 mM Tris (pH7.4), 0.12 M KCl, 8% glycerol, 4 mM DTT, and 0.5% CHAPS (buffer AA) for 30 min at room temperature. Thereafter, (^35S methionine) SRC-1 (ca 0.1 μCi) was added, and the beads were incubated for another hour at 4° C. and then washed extensively with buffer A. SDS sample buffer was added to the beads, and the samples boiled prior to separation on 7.5% SDS-PAGE. Radioactivity was detected by autoradiography.
α- and β-AED were investigated in above assay for PPARγ ligand activity in 10 and 100 μM solutions in ethanol 10%, in distilled water. 10 μL aliquots of α-AED-solution or β-AED-solution were also added to a preparation of a male rat liver cytosolic preparation prepared as follows:
A homogenate of a rat liver, a known source of steroid sulphotransferase activity, was prepared using a food processor. The liver homogenate was protected from serine-proteases by the addition of 2 mmol of PMSF, 1 mmol of EDTA and 10 mmol Tris-HCl buffered to a pH of 7.40. The homogenate was prepared at 4° C. and then centrifuged at 15000 g for 10 minutes, followed by centrifugation at 100000 g for an hour at 4° C. The supernatant was divided into test tubes containing one of the following steroids: 17β-AED or 17α-AED in 5 μM concentration together with 100 μL of liver cytosol. One test tube served as positive control and contained SCR-1.
In a second experiment the following steroids were tested for activity: 17α-AED, 17OH-pregnenolone and 5-androstene-3β,7β,17α-triol with and without 10 μL of […] (PAPS), Sigma Chemicals, corresponding to 0.1 mg of PAPS. One test tube served as a positive control and contained SRC-1 Instead of steroid. One test tube contained liver cytosol where the steroid sulphotransferase was inactivated by heating to 45° C. for 30 minutes. Tubes were stirred at 20° C. for 1 hour and the contents were investigated in the receptor-coactivator assay for ligand activity (FIG. 5).
17α-AED was treated in the method described by Arnostova, Libuse M.; Pouzar, Vladimir; Drasar, Pavel. Inst. Org. Chem. Biochem., Czech. Acad. Sci., Prague, Czech. Synth. Commun. (1990), 20(10), 1521-9, where acetate is used as protection group and pyridine —SO3 complex as the sulfating agent. Deprotection with an excess of 0.8M NaOH in MeOH-water provides the desired hydroxy sulfate, which is investigated, for PPARγ-activity in the ligand-activated-coactivator receptor assay described above.

Experiment [1] has as its system Dunning AT-1 rat prostate cancer.
The test system of another experiment is β-catenin. Description: Western blotting of Dunning AT-1 rat prostate tumours. In kind it is in vivo. The note with it: for β-catenin expression, optical density: Animals I, controls set to 100, mean (range), α-AED 10 mg 96 hours, β-AED 80 mg 456 hours, α+β sequential; for expression of β-catenin: Animals II, exposure 80 hours in all arms. The protocol:
The animal experiment described above was repeated.
Thawed rat tumours from both experiments above were homogenized in ice cold lysis-buffer. (160 mM NaCl, 10 mM HEPES, 2 mM CaCl2, 5% SDS, 0.5% Triton X-100, 100 μg/ml phenyl-metylsulfonyl fluoride, 1 μg/ml leupeptin and 2 μg/ml aprotinin), placed on ice for 15 minutes and following clarification centrifuged for 10 minutes at 13,000 g. Protein content of homogenates were determined by Lowry assay.
Protein in lysates (90 μg) were separated by electrophoresis using 8% SDS-PAGE and separated proteins were transferred onto a nitrocellulose membrane (Amersham) in trans-blot electrophoretic transfer cell (Bio-Rad Laboratories).
After washing in TTBS the blots were reincubated with horseradish peroxidase conjugated secondary antibody (anti-goat antibodies 2020, Santa Cruz) diluted 1:4000 in TTBS containing 3% (w/v) non-fat, dried milk for one hour. Blots were developed using an enhanced chemiluminescence system (ECL, Amersham) and exposed to Hyperfilm ECL (Amersham). Optical density was measured densitometrically.
The blots were striped and rehybridized with antibodies against β-catenin (C-18, sc. 1496) and COX-2 (C-20, sc 1745) antibodies.
In the second animal experiment tumours were investigated for expression of β-catenin, COX-2 and cyclin D1 (A-12, sc. 8396).

Experiment [2] has as its system Dunning AT-1, rat prostatic tumour. Description: Tumour morphology. The following applies: Animals I.
Procedure: Group 4 served as untreated, tumour-bearing controls. In all treatments equal amounts of PEG 400 (Sigma Chemicals) and ethanol, 0.5 ml was used as vehicle and injected s.c. adjacent to the tumour site.
In group 2 the experiment was terminated after 96 hours and for the remaining groups after 19 days through asphyxiation of rats with carbon dioxide.
The next experiment relates to DU-145. Description: Caspase apoptosis assay (Ac-DEVD-AMC fluorescence). In kind it is cell-based, human. The following applies: 96 hours; for Mean fluorescence DU-145 samples/100 cells n = 3 / Mean fluorescence DU-145 samples n = 3: 100 nM, mean (range); for Mean fluorescence DU-145 samples/100 cells n = 3: corrected for cell number. The protocol: Exposure was maintained for 96 hours and cells in culture flasks were then treated with 5 ml of trypsin (0.25%) for PC-3 and trypsin and 3 ml of Versene (0.2 mM) for DU-145. Cells were then mechanically loosened, using a glass spatula. 100 μL aliquots were removed for Trypan blue exclusion trial. 200 μL aliquots were removed for cytospin preparations. The remaining 700 μL samples were then centrifuged for 5 minutes at 510×g at 4° C. Supernatant was removed and cells were resuspended in medium in 1 ml of insect cell lysis buffer (Pharmingen # 21425A) and incubated for 30 minutes on ice. The cell lysates were then stored at −70° C. until analysis.
Aliquots of a 100 μL of cell lysate were removed for the caspase assay. Each portion was mixed with 1 ml protease assay buffer and Ac-DEVD-AMC substrate (Pharmingen # 66081U) with a final concentration of 20 μM. Solutions were incubated for 60 minutes at 37° C.
To determine background fluorescence a control was prepared, containing no cell lysate but the same amounts of protease assay buffer, lysis buffer and Ac-DEVD-AMC substrate.
Fluorescence was measured using a spectrofluorometer (RF 540, Shimadzu Data Recorder DR3, Instrument AB, Lambda) at 415-450 nm with an excitation wavelength of 380 nm.

T1 sequence (P37238 whole entry): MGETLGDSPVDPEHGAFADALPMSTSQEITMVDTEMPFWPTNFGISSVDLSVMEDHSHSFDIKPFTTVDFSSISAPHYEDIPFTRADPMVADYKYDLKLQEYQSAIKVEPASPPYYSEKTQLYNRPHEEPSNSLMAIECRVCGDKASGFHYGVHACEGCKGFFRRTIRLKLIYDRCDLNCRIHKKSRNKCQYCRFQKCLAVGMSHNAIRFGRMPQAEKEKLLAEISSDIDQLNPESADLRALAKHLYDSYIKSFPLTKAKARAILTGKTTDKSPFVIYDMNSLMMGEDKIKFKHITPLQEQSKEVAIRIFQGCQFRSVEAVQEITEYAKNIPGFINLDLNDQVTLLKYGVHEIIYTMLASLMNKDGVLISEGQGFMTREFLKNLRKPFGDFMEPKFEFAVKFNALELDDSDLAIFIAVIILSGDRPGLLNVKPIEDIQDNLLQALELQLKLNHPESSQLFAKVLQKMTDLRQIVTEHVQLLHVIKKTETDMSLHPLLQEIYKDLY
T1 sequence (Q15788 whole entry partner): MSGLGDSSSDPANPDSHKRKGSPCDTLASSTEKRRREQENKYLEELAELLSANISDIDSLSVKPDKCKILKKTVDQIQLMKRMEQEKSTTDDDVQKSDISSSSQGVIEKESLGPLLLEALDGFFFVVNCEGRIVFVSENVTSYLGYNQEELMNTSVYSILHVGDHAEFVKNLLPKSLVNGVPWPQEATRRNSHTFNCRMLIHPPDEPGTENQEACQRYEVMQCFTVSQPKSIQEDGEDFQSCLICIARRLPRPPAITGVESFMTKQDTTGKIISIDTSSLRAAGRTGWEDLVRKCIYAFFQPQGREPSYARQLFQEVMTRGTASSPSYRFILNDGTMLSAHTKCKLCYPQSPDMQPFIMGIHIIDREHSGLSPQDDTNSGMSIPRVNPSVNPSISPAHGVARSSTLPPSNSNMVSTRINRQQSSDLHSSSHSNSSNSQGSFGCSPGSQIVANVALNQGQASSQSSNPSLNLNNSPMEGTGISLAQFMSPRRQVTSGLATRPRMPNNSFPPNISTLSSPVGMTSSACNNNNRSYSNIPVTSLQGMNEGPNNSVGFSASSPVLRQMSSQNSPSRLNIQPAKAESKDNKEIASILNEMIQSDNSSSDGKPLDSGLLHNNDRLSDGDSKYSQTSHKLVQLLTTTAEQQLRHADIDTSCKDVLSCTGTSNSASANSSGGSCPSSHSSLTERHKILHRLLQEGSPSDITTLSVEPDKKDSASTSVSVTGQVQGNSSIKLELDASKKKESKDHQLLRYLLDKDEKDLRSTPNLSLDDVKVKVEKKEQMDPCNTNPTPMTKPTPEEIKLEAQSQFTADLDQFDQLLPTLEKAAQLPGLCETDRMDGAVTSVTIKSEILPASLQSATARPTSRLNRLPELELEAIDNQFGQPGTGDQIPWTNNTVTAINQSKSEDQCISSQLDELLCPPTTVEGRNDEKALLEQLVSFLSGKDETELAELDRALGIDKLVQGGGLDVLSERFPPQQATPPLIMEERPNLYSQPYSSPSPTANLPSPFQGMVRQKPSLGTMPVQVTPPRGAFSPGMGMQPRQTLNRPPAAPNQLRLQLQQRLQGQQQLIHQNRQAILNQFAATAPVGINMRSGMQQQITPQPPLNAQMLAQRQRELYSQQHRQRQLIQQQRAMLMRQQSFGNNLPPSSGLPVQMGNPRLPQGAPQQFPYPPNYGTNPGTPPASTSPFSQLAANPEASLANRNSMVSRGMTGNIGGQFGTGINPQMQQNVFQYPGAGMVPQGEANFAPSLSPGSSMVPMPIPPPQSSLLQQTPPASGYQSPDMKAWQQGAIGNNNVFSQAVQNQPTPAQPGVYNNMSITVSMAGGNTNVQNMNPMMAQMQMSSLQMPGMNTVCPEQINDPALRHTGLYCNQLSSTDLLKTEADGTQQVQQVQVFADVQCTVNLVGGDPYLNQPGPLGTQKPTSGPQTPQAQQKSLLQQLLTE

For `C[C@]12CC[C@H]3[C@@H](CC=C4C[C@@H](O)CC[C@@]43C)[C@@H]1CC[C@H]2O` [Compound 17α-AED, androstene-3β,17α-diol], on PPARγ, the “PPARγ-ligand activity of the steroid per se” value is “No sign of transcription pointing to a ligand activity” and the “band in coactivator assay, steroid incubated with liver cytosol” value is reported as “band was extinguished”. The “PPARγ-ligand activity, steroid + liver cytosol + PAPS” value on PPARγ (second experiment, active liver cytosol, sulfate formed in situ) is “significant difference in signal”. At PPARγ (second experiment, without PAPS), the “PPARγ-ligand activity, native steroid + liver cytosol” value is “insignificant responses”. The “mean S-phase” value in experiment [1] (treated Dunning AT-1 samples, untreated 25.5%) is given as 45.3%. For the same compound, the “Proportion of cells in G1” value in experiment [1] (treated tumours, control tumours 59%) turned out to be 35%. Also, in the experiment on β-catenin, the “β-catenin expression, optical density” value is 20(15-30) and the “expression of β-catenin” value is given as “marked decrease”. Besides, in experiment [2], the “tumour appearance (morphology)” value is “devitalized tumour tissue in circumscribed areas”. In addition, in the experiment on DU-145, the “Mean fluorescence DU-145 samples/100 cells n = 3” value is 14.2((10.9-20.3) and the “Mean fluorescence DU-145 samples n = 3” value is given as 18.4(13.2-25.2). The “caspase-3 or caspase-7 fluorescence compared to 17β-AED or controls” value with DU-145 (DU-145, 100 nM) is listed as “significant decline”.
For the compound `C[C@]12CC[C@H]3[C@@H](CC=C4C[C@@H](O)CC[C@@]43C)[C@@H]1CC[C@@H]2O` [Compound 17β-AED, reference compound], on PPARγ, the “PPARγ-ligand activity of the steroid per se” value was “No sign of transcription pointing to a ligand activity” and the “band in coactivator assay, steroid incubated with liver cytosol” value is recorded as “identical result”. For the same compound, in the experiment on β-catenin, the “β-catenin expression, optical density” value is 14(10-22) and the “expression of β-catenin” value was “did not reduce”. For the same compound, in the experiment with DU-145, the “Mean fluorescence DU-145 samples/100 cells n = 3” value is reported as 35.1(25.6-50.3) and the “Mean fluorescence DU-145 samples n = 3” value was 42.9(32.0-58.8).

(Values after US20050192262A1, “Treatment of tumours” (priority 2001, published 2005).)
